Where two headings read alike, the source gives them in different places. Positions of bridges follow the written chain, without caps; N, C: chain ends. Non-standard residues stand in square brackets, D forms with d. Residues, ends and D or L forms follow the SMILES beside them. Groups on a side chain read outwards from the residue. Chains are numbered I, II in the order given. *: point of attachment. 2Nal = N[C@@H](Cc1ccc2ccccc2c1)C(=O)O; dNMeOrn = CN[C@H](CCCN)C(=O)O; Mercaptoacetyl = O=C(CS)*; 4Abz = Nc1ccc(C(=O)O)cc1; X1 = NCCNCC(CNCCN)C(=O)*; dDap = NC[C@@H](N)C(=O)O
What was measured:
[1] = test system: Raji cells
Method: (§1) Two cell lines were selected for the respective experiments. The B-cell lymphoma cell line U2932 and the higher CXCR4 expressing lymphoblast-like Raji cell line. Both cell lines were incubated with the PDC for 24, 48, 72 and 96 hours in varying concentrations of 0 (Blank), 10, 20, 40 and 100 nM.

[2] = test system: U2932 cells; conditions: 72 h, increasing amounts of PDC
Method: For that purpose, cells were fixed, permeabilized and treated with propidium iodide. The number of cells in the G0/G1-, S— and G2/M-phase was then measured with regards to the amount of PDC used.

[3] = test system: U2932 cells; conditions: 10, 20, 40, 100 nM, 24-96 h
Method: as §1

[4] = target: T1, CXCR4 (Homo sapiens, UniProt P61073); experiment: Determination of IC50: competition with 125I-Fc-131 on CXCR4-positive Jurkat cells; type: binding; parameters: CXCR4-positive Jurkat T lymphocyte cells were grown in Gibco's RPMI 1640 GlutaMAX medium; endogenous in cells; host or cells: Jurkat T lymphocyte cells (whole cells in suspension, 400.000 per tube);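 also: test compound at 10^−5 to 10^−11 M competed for 2 h at 8 °C with the radioligand on 400,000 cells per well, bound versus free activity measured by γ-counting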
[5] = test system: CXCR4-expressing Chem_1 cells; experiment: Determination of internalization, dual tracer with 125I-Fc-131; type: cell-based; conditions: for Cell-bound [%] / Internalized [%]: of total cellular activity
Summary of the method: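 Receptor blockade used AMD3100 (1 mM stock) versus medium-treated wells, triplicate per time point, in Chem_1 cells cultured at 37 °C in DMEM-F12/10% FBS. Activity of supernatant, surface-bound and internalized (1 M NaOH) fractions measured by γ-counter, corrected for non-specific uptake and normalised to standard ligand.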

[6] = Octanol/PBS partition coefficient (logD7.4); type: physicochemical; conditions: n-octanol/PBS pH 7.4, radiolabeled compound
Method: The tubes were vortexed at maximum speed for 3 min to ensure equilibrium before centrifugation at 15.000×g for 5 min on a Biofuge 15 from Heraeus Holding GmbH (Osterode, Germany). An aliquot of 100 μL of each fraction was measured in the γ-counter and the log D7.4 calculated as follows: […]

[7] = target: T1, CXCR4; experiment: Determination of inverse IC50 (invIC50): radiolabeled peptide displaced by Fc-131 on Jurkat cells
Method: For in vitro experiments, cells were counted in a hemocytometer using trypan blue as contrast agent. The cell suspension was centrifuged, and the pellet resuspended in HBSS (+1 wt % BSA) to a concentration of 2 mio cells/mL. 8×3 polystyrene tubes were loaded with 25 μL of the standard ligand ^125I-Fc-131 (see 4.1, 1.00 nM in HBSS) and 25 μL of the ligand to investigate in the respective concentration (10^−4-10^−10 M, n=3 for each concentration). 200 μL of cell suspension (400.000 cells per well) were added to obtain a final peptide concentration range of 10^−5-10^−11 M. The tubes were cooled for 2 h at 8° C. to prevent internalization. The experiment was stopped by removal of the supernatant. 200 μL HBSS were added onto the cells, the suspension centrifuged, and the supernatant pooled with the respective first fractions. This step was repeated once more before the tubes containing the supernatants and the ones containing the cell pellets were subjected to activity measurement in the γ-counter.
For the determination of inverse IC50 (invIC50) values the protocol for the determination of regular IC50 values was resumed with minor changes. The peptide under investigation was radioactively labeled and a stock solution was prepared in HBSS (2.00 nM). A concentration gradient of the standard ligand Fc-131 was prepared in HBSS (10^−4-10^−10 M). A cell tube was then containing 25 μL of the radioactive peptide solution, 25 μL of the respective Fc-131 solution and 200 μL cell suspension (400.000 cells). The experiment was conducted as described above.

[8] = Biodistribution in Jurkat tumor-bearing CB-17 SCID mice; type: in vivo; conditions: female, CB-17 SCID, mouse, in vivo, iv, total radioactivity, 1 h p.i., Jurkat xenograft, CB-17 SCID female mice
Summary of the method: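 Radioligand (125I, 177Lu, 99mTc, 18F or 68Ga label; roughly 0.5-20 MBq, 0.02-0.20 nmol) was injected intravenously via tail vein. Hosts were CB17-SCID mice with subcutaneous Jurkat tumors of 5-8 mm, 4-10 weeks post-inoculation. Dissected organs were weighed and counted in a γ-counter.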

[9] = Method: The radiosynthesis of [^99mTc]CXCR4-Tc-14 was performed manually, as described in chapter 4.2.3 above. Images were acquired after injection of 430-604 MBq of [^99mTc]CXCR4-Tc-14 at 5 min to 21 h p.i. Details of the scanning procedure are set out below.
Clinical evaluation of [^99mTc]CXCR4-Tc-14 in patients was conducted under compassionate use in compliance with the German Medicinal Products Act, AMG § 13 2b, and in accordance with the responsible authorities (Government of Oberbayern). First proof-of-concept studies were performed at the Universitätsklinikum Augsburg (Augsburg, Germany).
All subjects were examined on a Discovery MN CT 670 Pro equipped with an Optima 540 CT (GE Healthcare, Solingen, Germany). Full-body SPECT/CT scans at 5 and 60 min after tracer injection were acquired with a scanning speed of 30 cm/min, scans at 120 and 300 min were acquired with a scanning speed of 12 cm/min and scans at 21 h were acquired with a scanning speed of 5 cm/min. The scans were obtained in 60 subsets using the double-head technology in matrices of 128×128 (zoom 1). SPECT scans at 60 and 180 min after tracer injection were acquired with an exposure time of 8 sec per subset and scans at 21 h were acquired with an exposure time of 16 sec per subset. Emission data were smoothed applying a Butterworthfilter (0.48) and reconstructed iteratively by an ordered-subsets expectation maximization algorithm (2 iterations, 10 subsets). Images were obtained after injection of 430-604 MBq of [^99mTc]CXCR4-Tc-14 at 5 min to 21 h p.i.
The specific and effective doses in selected organs were analyzed. For calculation of the doses, voxels of interest were defined around areas with increased uptake in full-body images. Time-activity curves for the respective organs were automatically determined and the residence time of the tracer calculated using the specific calibration of the SPECT camera and a standard activity value. The residence time was used as the input data for the Olinda/EXM software. The output of this calculation was referred to the dosimetry guideline of the International Commission on Radiological Protection.

[10] = patient, multiple myeloma, 604 MBq

T1 sequence (P61073 whole entry): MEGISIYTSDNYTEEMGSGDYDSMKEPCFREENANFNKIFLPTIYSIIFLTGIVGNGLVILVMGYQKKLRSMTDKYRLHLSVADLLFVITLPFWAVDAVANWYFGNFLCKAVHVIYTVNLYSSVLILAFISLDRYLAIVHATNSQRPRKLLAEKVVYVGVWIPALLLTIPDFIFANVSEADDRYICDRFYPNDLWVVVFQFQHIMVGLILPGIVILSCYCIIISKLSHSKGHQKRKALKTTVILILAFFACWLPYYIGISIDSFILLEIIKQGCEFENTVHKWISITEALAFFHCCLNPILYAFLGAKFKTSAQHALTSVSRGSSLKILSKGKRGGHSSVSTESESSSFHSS

## CC[C@H](C)[C@@H]([C@@H](CC(=O)N1CCC[C@H]1[C@H](OC)[C@@H](C)C(=O)N[C@H](C)C(O)c1ccccc1)OC)N(C)C(=O)[C@@H](NC(=O)[C@H](C(C)C)N(C)C(=O)OCc1ccc(NC(=O)[C@H](CCCNC(N)=O)NC(=O)[C@@H](NC(=O)CCCCCN2C(=O)CC(SCC[C@@H](N)C(=O)NC(CCCNC(=N)N)C(=O)N[C@H](C)C(=O)Nc3ccc(C(=O)NCCC[C@@H]4C(=O)N[C@@H](CCCNC(=N)N)C(=O)N[C@H](Cc5ccc6ccccc6c5)C(=O)NCC(=O)N[C@@H](Cc5ccc(O)cc5)C(=O)N4C)cc3)C2=O)C(C)C)cc1)C(C)C (stereo partly shown) [CXCR4-MMAE-2]
[1]; 96 h, 10, 20 and 40 nM, Raji vs U2932
  fraction of dead cells: considerably higher fraction of dead Raji cells compared to the U2932 cells
[1]; Raji cells, 10, 20, 40, 100 nM, 24-96 h
  cell viability: decreased cell viabilities
[2]
  cells in G2/M-phase: higher number of cells stuck in the G2/M-phase
[3]
  cell viability: decreased cell viabilities
[4]
  IC50: 42.6 ± 8.3 nM
[5]; 2 h, 125I-labeled
  Internalization 2 h [% of bound peptide]: 27.9 ± 1.14 % of bound peptide
[6]
  logD7.4: 1.11 ± 0.08 (5)

## C[C@@H](NC(=O)[C@@H](CCCNC(=N)N)NC(=O)[C@@H](CN)NC(=O)[C@@H](CO)NC(=O)[C@@H](CO)NC(=O)[C@@H](CO)NC(=O)CS)C(=O)Nc1ccc(C(=O)NCCC[C@@H]2C(=O)N[C@@H](CCCNC(=N)N)C(=O)N[C@@H](Cc3ccc4ccccc4c3)C(=O)NCC(=O)N[C@H](Cc3ccc(O)cc3)C(=O)N2C)cc1 [Tc-CXCR4-6] (I: Mercaptoacetyl-[dS][dS][dS][dDap][dR][dA][4Abz] / II: cyclo([dY][dNMeOrn]R[2Nal]G); amide I:C-II:2)
[4]
  IC50: 4.97 ± 1.34 nM
[5]; 30 min
  Internalized in relation to 125I-Fc-131 [%]: 470 ± 17.4%
  Cell-bound [%]: 6.56 ± 0.31%
  Internalized [%]: 17.4 ± 0.40%
[5]; 90 min
  Internalization [% Fc-131]: 525 (90 min) % Fc-131
  Internalized in relation to 125I-Fc-131 [%]: 526 ± 29.0%
  Cell-bound [%]: 6.90 ± 0.29%
  Internalized [%]: 27.1 ± 0.50%
[6]
  logD7.4: −1.54 ± 0.02 (6)
[7]
  IC50: 3.67 ± 0.77 nM

## C[C@@H](NC(=O)[C@@H](CCCNC(=N)N)NC(=O)[C@@H](CN)NC(=O)C(CNCCN)CNCCN)C(=O)Nc1ccc(C(=O)NCCC[C@@H]2C(=O)N[C@@H](CCCNC(=N)N)C(=O)N[C@@H](Cc3ccc4ccccc4c3)C(=O)NCC(=O)N[C@H](Cc3ccc(O)cc3)C(=O)N2C)cc1 [Tc-CXCR4-14] (cyclo([dY][dNMeOrn]([4Abz-dA-dR-dDap-X1])R[2Nal]G))
[5]; 10 min
  Internalized in relation to 125I-Fc-131 [%]: 486 ± 18.9%
  Cell-bound [%]: 0.67 ± 0.14%
  Internalized [%]: 17.9 ± 0.59%
[5]; 30 min
  Internalized in relation to 125I-Fc-131 [%]: 683 ± 51.3%
  Cell-bound [%]: 1.56 ± 0.41%
  Internalized [%]: 30.2 ± 0.74%
[5]; 60 min
  Internalized in relation to 125I-Fc-131 [%]: 742 ± 45.2%
  Cell-bound [%]: 0.91 ± 0.14%
  Internalized [%]: 36.4 ± 0.20%
[5]; 120 min
  Internalization [% Fc-131]: 666 (120 min) % Fc-131
  Internalized in relation to 125I-Fc-131 [%]: 694 ± 42.5%
  Cell-bound [%]: 1.11 ± 0.48%
  Internalized [%]: 37.9 ± 0.56%
[5]; time not given
  Internalization (in % of 125I-FC-131): 742%
[8]; Blood, read-out: % iD/g Blood
  tissue uptake at 1 h: 1.62 %ID/g
[8]; Bone, read-out: % iD/g Bone
  tissue uptake at 1 h: 1.31 %ID/g
[8]; Heart, read-out: % iD/g Heart
  tissue uptake at 1 h: 1.21 %ID/g
[8]; Intestine, read-out: % iD/g Intestine
  tissue uptake at 1 h: 0.92 %ID/g
[8]; Liver, read-out: % iD/g Liver
  tissue uptake at 1 h: 7.67 %ID/g
[8]; Lung, read-out: % iD/g Lung
  tissue uptake at 1 h: 3.99 %ID/g
[8]; Pancreas, read-out: % iD/g Pancreas
  tissue uptake at 1 h: 0.56 %ID/g
[8]; Stomach, read-out: % iD/g Stomach
  tissue uptake at 1 h: 1.97 %ID/g
[8]; Tumor, read-out: % iD/g Tumor
  tissue uptake at 1 h: 8.63 %ID/g
[9]; 604 MBq injected
  delivered whole-body dose: 3.8 mSv
[9]; patient, multiple myeloma
  whole-body effective dose: 6.3 μSv/MBq
[9]; [10]
  specific dose, kidneys: 10 μGy/MBq
  specific dose, liver: 14 μGy/MBq
  specific dose, osteogenic cells: 13 μGy/MBq
  specific dose, red bone marrow: 11 μGy/MBq
  specific dose, spleen: 47 μGy/MBq
[6]; listed as [^99mTc]CXCR4-Tc-14
  logD7.4: −1.75
[7]; read-out: invIC50, radiolabeled compound displaced by Fc-131, Jurkat cells
  IC50: 10.2 nM

— patent US20250288704A1, “CXCR4-LIGANDS FOR DIAGNOSTIC AND THERAPEUTIC USE AND PRECURSORS THEREOF” (priority 2021, published 2025)
